From ChEMBL document CHEMBL1781964, “Exploring molecular shape analysis of styrylquinoline derivatives as HIV-1 integrase inhibitors” (Eur J Med Chem, 2008)
pIC50: −log10 of the molar value.

Molecular target: Human immunodeficiency virus type 1 integrase (Human immunodeficiency virus 1, UniProt Q7ZJM1)
Assay: Inhibition of HIV1 integrase 3' processing activity

Human immunodeficiency virus type 1 integrase, sequence (Q7ZJM1 whole entry): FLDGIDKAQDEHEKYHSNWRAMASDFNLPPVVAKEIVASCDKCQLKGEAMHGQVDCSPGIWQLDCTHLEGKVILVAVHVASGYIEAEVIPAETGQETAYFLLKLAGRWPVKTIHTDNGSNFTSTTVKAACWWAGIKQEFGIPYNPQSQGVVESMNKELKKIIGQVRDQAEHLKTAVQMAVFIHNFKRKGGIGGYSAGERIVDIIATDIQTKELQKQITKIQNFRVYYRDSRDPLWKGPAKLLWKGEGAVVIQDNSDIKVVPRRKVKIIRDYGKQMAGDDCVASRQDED

Compound	pIC50
Oc1cccc2ccc(/C=C/c3ccc4cccc(O)c4n3)nc12	4.00
COc1ccc(/C=C/C(=O)Oc2cccc3ccc(C)nc23)cc1OC	4.00
Oc1cccc2ccc(/C=C/c3ccccc3)nc12	4.00
Cc1ccc2cccc(O)c2n1 [8-HYDROXY QUINALDINE]	4.00
CC(=O)Oc1cccc2ccc(/C=C/c3ccccc3)nc12	4.00
CC(=O)Oc1ccc(/C=C/c2ccc3cccc(OC(C)=O)c3n2)cc1OC(C)=O	4.00
Cc1ccc2ccc(C(=O)O)c(O)c2n1	4.00
Cc1ccc2cccc(OC(=O)/C=C/c3ccc(O)c(O)c3)c2n1	4.00

Further lines, results first:

pIC50	Compound
4.00	Oc1ccc(/C=C/c2ccc3c(Cl)cc(Cl)c(O)c3n2)cc1O
4.00	Oc1ccc(/C=C/c2ccc3ccccc3n2)cc1O
6.52	O=C(O)c1ccc2ccc(/C=C/c3ccc(O)c(O)c3O)nc2c1O
5.55	Cc1cc(/C=C/c2ccc3ccc(C(=O)O)c(O)c3n2)ccc1O
4.00	O=[N+]([O-])c1cccc2ccc(/C=C/c3ccc(O)c(O)c3)nc12
4.00	COC(=O)c1ccc2ccc(/C=C/c3ccc(O)c(O)c3)nc2c1O
4.00	Nc1cccc2ccc(/C=C/c3ccc(O)c(O)c3)nc12
